4 compounds from publication PMC7827406, “Structure–Activity Relationship (SAR) Study of Spautin-1 to Entail the Discovery of Novel NEK4 Inhibitors” (International Journal of Molecular Sciences, 2021) can be followed below.

The structures appear in SMILES notation. Read-outs that look alike come from different tables or passages of the source.

Common to all, as to experiment: biochemical
Common to all, as to parameters: Eurofins KinaseProfiler full panel at Km ATP, residual kinase activity (%) relative to DMSO

In one assay the target is T1, ChaK1(h) (Homo sapiens, UniProt Q96QT4).
T1 construct: gene TRPM7
T1 sequence (Q96QT4 whole entry): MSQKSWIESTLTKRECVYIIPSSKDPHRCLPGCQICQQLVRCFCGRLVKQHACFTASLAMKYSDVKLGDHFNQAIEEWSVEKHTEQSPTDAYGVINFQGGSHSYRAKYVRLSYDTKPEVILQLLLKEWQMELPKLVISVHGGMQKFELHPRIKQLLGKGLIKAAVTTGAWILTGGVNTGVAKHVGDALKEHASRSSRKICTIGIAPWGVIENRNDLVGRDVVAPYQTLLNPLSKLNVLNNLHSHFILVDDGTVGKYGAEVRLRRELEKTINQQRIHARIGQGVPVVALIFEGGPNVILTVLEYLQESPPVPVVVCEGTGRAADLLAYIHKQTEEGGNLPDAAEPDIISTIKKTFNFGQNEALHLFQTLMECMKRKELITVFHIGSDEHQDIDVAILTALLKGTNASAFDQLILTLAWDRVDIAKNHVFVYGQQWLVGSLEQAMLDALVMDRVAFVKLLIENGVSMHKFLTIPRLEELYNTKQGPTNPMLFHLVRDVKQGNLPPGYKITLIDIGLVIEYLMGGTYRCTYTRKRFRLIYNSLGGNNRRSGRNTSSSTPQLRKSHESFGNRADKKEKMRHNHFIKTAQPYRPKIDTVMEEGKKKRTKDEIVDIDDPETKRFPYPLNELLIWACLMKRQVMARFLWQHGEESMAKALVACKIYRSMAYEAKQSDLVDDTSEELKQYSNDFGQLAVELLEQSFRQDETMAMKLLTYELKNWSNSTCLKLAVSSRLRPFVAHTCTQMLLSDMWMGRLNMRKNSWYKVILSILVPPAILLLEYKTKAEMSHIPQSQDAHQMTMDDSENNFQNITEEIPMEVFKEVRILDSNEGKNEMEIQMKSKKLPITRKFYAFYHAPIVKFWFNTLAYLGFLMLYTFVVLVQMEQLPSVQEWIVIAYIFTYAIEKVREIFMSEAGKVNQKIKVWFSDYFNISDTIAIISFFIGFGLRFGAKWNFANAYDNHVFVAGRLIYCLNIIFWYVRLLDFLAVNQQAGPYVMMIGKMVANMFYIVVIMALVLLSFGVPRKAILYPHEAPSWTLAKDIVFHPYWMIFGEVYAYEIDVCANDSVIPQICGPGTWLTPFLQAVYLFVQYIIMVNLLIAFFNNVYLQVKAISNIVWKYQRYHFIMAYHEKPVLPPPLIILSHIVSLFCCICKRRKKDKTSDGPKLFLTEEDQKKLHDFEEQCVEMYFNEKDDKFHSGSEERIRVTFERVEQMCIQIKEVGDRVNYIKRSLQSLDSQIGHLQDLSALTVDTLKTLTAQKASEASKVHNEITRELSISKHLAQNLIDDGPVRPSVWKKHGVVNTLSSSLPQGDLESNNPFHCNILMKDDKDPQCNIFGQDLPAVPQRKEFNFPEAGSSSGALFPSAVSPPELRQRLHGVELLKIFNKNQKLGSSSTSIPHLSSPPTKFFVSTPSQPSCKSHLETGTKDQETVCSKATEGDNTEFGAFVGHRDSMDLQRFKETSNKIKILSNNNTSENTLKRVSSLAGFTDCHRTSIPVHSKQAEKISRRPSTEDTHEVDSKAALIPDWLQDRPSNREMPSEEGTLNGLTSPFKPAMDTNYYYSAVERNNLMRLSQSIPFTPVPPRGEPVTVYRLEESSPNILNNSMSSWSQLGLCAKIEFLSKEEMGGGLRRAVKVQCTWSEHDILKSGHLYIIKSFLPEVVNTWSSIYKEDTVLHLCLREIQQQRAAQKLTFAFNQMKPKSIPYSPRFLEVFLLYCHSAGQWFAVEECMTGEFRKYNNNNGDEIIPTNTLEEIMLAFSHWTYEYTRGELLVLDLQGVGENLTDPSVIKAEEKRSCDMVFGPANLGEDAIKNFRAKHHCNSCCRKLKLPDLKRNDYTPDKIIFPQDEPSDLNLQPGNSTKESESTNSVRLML
On the procedure:
(§1) Eurofins performed a “Full KP Panel [Km ATP], KinaseProfile” which contains 429 radiometric kinase activity assays. The remaining kinase activity (%) was determined after treatment with the compounds at a concentration of 10 µM (Cfr. supporting information). Since we could not confirm the interaction between Spautin-1 analogues and USP13, a kinase screening was performed using a set of four compounds (Spautin-1 and three analogues) to discover off-targets and identify kinases that are potentially responsible for the reduction in cell viability observed in our screen (Table 2). The KINOMEscan from Eurofins was performed (see Table S1). This screen consists of a competitive binding assay in which the DNA-tagged kinase is incubated with one of the compounds in the presence of immobilized active site binding ligands. Binding of the compounds to the kinase hampers the binding of the kinase to the ligands and this inhibition was quantified by qPCR. The residual kinase activity, which represents the percentage of kinase attached to the immobilized ligands, was determined for 428 kinases at a standard screening concentration of 10 µM of the compounds dissolved in DMSO [61].

The target of another assay is T2, MKK6(h) (Homo sapiens, UniProt P52564).
T2 construct: gene MAP2K6
T2 sequence (P52564 1-334): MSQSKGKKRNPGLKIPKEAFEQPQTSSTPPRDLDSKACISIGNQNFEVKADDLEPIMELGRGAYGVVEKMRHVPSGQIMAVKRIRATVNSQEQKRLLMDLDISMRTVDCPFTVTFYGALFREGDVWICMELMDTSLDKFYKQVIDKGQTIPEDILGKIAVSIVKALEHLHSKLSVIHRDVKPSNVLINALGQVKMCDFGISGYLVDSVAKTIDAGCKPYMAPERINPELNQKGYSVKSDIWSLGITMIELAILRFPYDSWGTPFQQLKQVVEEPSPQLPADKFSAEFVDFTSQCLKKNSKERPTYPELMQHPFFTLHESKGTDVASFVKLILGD
On the procedure: as §1

The next assay addresses T3, PDHK4(h) (Homo sapiens, UniProt Q16654).
T3 construct: gene PDK4
On the procedure: as §1

Another assay has as its target T4, PEK(h) (Homo sapiens, UniProt Q9NZJ5).
T4 construct: gene EIF2AK3
T4 sequence (Q9NZJ5 1-1116): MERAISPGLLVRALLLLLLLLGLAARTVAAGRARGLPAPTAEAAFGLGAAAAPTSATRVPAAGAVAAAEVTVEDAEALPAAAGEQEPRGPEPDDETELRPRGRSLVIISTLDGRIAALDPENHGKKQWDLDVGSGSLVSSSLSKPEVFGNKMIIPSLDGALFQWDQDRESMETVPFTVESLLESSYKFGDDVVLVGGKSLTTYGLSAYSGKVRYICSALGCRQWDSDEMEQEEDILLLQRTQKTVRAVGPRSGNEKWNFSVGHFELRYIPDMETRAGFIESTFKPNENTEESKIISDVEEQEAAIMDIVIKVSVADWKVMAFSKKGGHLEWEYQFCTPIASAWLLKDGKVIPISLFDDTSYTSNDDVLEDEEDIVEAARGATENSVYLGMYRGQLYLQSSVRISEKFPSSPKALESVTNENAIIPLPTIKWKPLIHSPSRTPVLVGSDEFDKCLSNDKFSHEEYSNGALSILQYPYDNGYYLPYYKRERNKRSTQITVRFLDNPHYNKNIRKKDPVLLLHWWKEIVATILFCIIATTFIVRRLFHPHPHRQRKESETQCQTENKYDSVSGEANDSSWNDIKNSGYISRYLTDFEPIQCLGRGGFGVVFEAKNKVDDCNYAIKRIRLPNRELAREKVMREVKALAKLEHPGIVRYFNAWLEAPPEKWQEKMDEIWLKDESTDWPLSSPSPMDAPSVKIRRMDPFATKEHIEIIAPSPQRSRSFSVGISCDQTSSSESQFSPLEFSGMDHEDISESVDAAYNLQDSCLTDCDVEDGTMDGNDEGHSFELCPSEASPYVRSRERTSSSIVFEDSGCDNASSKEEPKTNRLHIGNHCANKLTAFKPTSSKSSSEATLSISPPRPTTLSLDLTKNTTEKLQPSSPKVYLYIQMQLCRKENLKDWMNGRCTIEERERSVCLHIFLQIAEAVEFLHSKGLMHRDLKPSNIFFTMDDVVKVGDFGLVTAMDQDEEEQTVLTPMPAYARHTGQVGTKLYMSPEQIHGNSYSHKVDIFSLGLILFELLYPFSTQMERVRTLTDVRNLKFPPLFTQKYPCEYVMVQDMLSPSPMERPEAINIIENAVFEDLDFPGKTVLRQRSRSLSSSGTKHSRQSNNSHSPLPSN
The procedure: as §1

The target in assay [1] is T5, PI3 Kinase (p110b/p85a)(h) (Homo sapiens, UniProt P42338).
T5 construct: gene PIK3CB
The procedure: as §1

For the next assay, the target named is T6, PKCδ(h) (Homo sapiens, UniProt Q05655).
T6 construct: gene PRKCD
On the procedure: as §1

The target of a further assay is Plk1(h) (Homo sapiens, UniProt P53350). The procedure: as §1
The target of another assay is SIK3(h) (Homo sapiens, UniProt Q9Y2K2). On the procedure: as §1
Chain of SIK3(h) (Q9Y2K2 whole entry): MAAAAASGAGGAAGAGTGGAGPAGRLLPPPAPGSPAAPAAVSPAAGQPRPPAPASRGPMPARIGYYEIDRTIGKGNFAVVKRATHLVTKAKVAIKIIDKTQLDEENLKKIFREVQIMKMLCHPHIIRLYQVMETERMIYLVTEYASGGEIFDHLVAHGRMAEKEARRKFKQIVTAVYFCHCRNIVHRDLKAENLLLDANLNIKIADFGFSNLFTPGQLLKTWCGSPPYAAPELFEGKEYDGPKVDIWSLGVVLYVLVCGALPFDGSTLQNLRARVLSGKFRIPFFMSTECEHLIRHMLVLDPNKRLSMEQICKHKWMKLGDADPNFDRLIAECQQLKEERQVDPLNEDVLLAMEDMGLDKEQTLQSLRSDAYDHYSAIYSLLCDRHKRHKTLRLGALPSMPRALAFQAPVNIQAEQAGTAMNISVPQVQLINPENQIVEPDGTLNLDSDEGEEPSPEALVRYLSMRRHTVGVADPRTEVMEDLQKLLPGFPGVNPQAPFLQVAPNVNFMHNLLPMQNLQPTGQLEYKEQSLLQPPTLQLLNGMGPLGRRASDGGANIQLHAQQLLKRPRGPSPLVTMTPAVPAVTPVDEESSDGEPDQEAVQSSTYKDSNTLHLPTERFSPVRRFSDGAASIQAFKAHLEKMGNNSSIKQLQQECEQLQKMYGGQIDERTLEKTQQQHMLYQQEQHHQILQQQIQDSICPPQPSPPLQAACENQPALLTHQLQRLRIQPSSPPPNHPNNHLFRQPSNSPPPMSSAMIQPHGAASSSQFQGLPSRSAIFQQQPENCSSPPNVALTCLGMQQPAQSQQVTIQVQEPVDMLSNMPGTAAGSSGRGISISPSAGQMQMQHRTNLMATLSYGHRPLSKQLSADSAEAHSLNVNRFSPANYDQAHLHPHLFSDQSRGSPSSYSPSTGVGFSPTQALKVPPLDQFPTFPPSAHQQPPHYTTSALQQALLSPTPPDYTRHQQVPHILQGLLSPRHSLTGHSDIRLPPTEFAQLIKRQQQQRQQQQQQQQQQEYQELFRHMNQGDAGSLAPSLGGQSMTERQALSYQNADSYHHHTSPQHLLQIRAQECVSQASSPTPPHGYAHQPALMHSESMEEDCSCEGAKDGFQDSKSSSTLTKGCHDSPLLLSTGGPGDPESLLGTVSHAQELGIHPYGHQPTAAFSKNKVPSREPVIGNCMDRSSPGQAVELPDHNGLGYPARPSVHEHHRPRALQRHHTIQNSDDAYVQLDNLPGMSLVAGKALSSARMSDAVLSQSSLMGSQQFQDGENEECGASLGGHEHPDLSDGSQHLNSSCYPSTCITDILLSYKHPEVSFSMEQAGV
For the next assay, the target named is T7, cKit(D816H)(h) (Homo sapiens, UniProt P10721, D816H).
T7 construct: gene KIT
T7 sequence (P10721 whole entry D816H): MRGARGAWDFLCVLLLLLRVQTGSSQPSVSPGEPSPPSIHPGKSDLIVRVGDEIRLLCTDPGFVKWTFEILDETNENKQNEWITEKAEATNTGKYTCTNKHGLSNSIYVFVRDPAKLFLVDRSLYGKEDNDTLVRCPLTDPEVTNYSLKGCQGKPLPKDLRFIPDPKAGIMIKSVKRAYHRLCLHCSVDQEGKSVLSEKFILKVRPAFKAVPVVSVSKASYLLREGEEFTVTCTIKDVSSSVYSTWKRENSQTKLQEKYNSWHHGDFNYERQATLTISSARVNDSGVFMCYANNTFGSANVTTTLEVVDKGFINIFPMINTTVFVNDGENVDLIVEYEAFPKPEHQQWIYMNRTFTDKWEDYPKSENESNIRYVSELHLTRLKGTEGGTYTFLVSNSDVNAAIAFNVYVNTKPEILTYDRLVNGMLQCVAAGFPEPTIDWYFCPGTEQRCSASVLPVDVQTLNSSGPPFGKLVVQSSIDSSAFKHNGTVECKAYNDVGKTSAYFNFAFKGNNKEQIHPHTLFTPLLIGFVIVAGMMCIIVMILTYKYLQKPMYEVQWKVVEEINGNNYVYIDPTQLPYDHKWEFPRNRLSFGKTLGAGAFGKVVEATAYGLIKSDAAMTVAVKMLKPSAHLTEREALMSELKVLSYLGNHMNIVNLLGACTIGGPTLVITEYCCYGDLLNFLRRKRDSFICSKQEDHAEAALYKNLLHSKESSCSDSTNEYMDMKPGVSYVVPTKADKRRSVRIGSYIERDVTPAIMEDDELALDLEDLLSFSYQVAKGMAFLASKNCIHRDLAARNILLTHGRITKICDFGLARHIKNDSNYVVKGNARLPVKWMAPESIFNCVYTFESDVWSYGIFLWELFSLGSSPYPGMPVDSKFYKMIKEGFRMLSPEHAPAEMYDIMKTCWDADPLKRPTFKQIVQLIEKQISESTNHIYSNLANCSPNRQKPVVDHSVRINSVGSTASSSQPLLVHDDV
On the procedure: as §1

The target of a further assay is T8, cSRC(h) (Homo sapiens, UniProt P12931).
T8 construct: gene SRC
T8 sequence (P12931 whole entry): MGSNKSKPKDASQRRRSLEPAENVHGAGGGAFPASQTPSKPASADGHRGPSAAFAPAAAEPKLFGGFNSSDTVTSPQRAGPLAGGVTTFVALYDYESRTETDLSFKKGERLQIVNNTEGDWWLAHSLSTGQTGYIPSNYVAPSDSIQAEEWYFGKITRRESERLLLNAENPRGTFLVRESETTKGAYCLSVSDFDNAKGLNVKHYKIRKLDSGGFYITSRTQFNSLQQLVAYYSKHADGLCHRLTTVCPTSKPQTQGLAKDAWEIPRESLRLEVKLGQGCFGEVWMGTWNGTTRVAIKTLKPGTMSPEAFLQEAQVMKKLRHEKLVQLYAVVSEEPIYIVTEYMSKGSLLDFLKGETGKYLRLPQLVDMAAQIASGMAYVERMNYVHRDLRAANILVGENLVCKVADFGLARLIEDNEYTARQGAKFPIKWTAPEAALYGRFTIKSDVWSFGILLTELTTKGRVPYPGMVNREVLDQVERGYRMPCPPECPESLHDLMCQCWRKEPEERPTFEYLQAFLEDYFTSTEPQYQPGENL
On the procedure:
as §1

Where [2] appears, read: read-out: Residual activity (%) Spautin-1 5aa.
[3] abbreviates: read-out: Residual activity (%) 5as.
Where [4] appears, read: read-out: Residual activity (%) 5at.
Where [5] appears, read: read-out: Residual activity (%) 5ay.

T3 sequence (Q16654 whole entry): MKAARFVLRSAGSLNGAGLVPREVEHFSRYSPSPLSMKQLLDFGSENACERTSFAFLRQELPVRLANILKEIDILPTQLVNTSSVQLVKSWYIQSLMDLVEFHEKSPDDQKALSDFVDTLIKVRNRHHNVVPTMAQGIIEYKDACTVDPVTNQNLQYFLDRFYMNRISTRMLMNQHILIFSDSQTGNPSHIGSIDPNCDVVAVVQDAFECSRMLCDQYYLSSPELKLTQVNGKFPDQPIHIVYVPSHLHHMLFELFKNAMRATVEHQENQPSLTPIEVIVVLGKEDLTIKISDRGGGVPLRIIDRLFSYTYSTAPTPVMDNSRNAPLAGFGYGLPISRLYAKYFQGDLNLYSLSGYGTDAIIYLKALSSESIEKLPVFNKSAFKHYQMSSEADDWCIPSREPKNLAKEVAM

In the case of `Fc1ccc(CNc2ncnc3ccc(F)cc23)cc1` [5aa, 6-Fluoro-N-(4-fluorobenzyl)-4-Quinazolinamine], the remaining activity at 10 µM at ChaK1(h) (setting [2]) came to 86%; at MKK6(h) (setting [2]) it was 78%; on PDHK4(h) (setting [2]), 106%; on PEK(h) (setting [2]) it was 105%; in assay [1] (setting [2]) it was 102%; on PKCδ(h) (setting [2]), 81%. Also, the remaining activity at 10 µM at Plk1(h) (setting [2]) worked out at 93%; on SIK3(h) (setting [2]) it was 95%; on cKit(D816H)(h) (setting [2]), 115%; at cSRC(h) (setting [2]), 133%.
For `Fc1ccc(CCNc2ncnc3ccc(F)cc23)cc1` [5as, 6-Fluoro-N-[2-(4-Fluorophenyl)Ethyl]-4-Quinazolinamine], the remaining activity at 10 µM on ChaK1(h) (setting [3]) is 81%; on MKK6(h) (setting [3]), 84%; on PDHK4(h) (setting [3]), 102%; at PEK(h) (setting [3]), 112%; in assay [1] (setting [3]), 99%; on PKCδ(h) (setting [3]), 97%. For the same compound, the remaining activity at 10 µM at Plk1(h) (setting [3]) stood at 96%; on SIK3(h) (setting [3]), 79%; at cKit(D816H)(h) (setting [3]), 95%; on cSRC(h) (setting [3]) it was 81%.
Take `Fc1ccc2ncnc(NCCc3ccc(Cl)cc3)c2c1` [5at, N-[2-(4-Chlorophenyl)Ethyl]-6-Fluoro-4-Quinazolinamine]: the remaining activity at 10 µM turned out to be 82% at ChaK1(h) (setting [4]); 95% at MKK6(h) (setting [4]); 101% on PDHK4(h) (setting [4]); 110% at PEK(h) (setting [4]); 93% in assay [1] (setting [4]); 88% at PKCδ(h) (setting [4]). The remaining activity at 10 µM on Plk1(h) (setting [4]) was found to be 92%; at SIK3(h) (setting [4]), 71%; at cKit(D816H)(h) (setting [4]) it was 95%; on cSRC(h) (setting [4]) it was 120%.
Consider `COc1ccc2ncnc(Nc3cccc(F)c3)c2c1` [5ay, N-(3-Fluorophenyl)-6-Methoxy-4-Quinazolinamine], for which the remaining activity at 10 µM was 77% on ChaK1(h) (setting [5]); 74% on MKK6(h) (setting [5]); 104% at PDHK4(h) (setting [5]); 108% on PEK(h) (setting [5]); 103% in assay [1] (setting [5]); 75% at PKCδ(h) (setting [5]). Moreover, the remaining activity at 10 µM on Plk1(h) (setting [5]) turned out to be 96%; on SIK3(h) (setting [5]), 81%; at cKit(D816H)(h) (setting [5]), 89%; at cSRC(h) (setting [5]) it was 106%.
